“And” between values parts separate entries of the source, which are not always exact repeats. Identical values can stand only once.
Columns and labels:
homme = test: Clinical use as sedative and antidepressant agents; assay type: in vivo; settings: for résultats en tant qu'agents antidépresseurs chez l'homme: tablets or capsules of 5 mg, 3 per day
[1] = CNS action of CRL 40727: hypothermia and amphetamine stereotypies (species not given); settings: in vivo
souris [2] = test: Interaction with apomorphine, mouse; assay type: in vivo
Experimental: (§1) Le CRL 40827, en solution dans de l'eau distillée, a été administré par voie intrapéritonéale sous un volume de 20 ml/kg chez la souris mâle et un volume de 5 ml/kg chez le rat mâle. 1°) - Toxicité
Des lots de 6 souris reçoivent le CRL 40827 30 min avant l'injection sous-cutanée d'apomorphine à la dose de 1 ou 16 mg/kg.
(§2) En procédant selon les modalités opératoires données ci-dessus pour le CRL 40827, on observe ce qui suit.

souris [3] = test: Toxicity: maximal non-lethal dose DL-0, intraperitoneal; assay type: in vivo; settings: mouse, i.p.
Experimental: La dose maximale non mortelle, DL-0, est supérieure à 128 mg/kg et inférieure à 256 mg/kg, chez la souris, par voie I.P. 2°) - Action sur le SNC
as §1
La dose maximale non mortelle, DL-0, est supérieure à 64 mg/kg et inférieure à 128 mg/kg chez la souris mâle.
Le CRL 40854, en solution dans de l'eau distillée, a été administré par voie intrapéritonéale sous un volume de 20 ml/kg chez la souris màle et de 5 ml/kg chez le rat màle.
La dose maximale non mortelle DL-0 est supérieure à 128 mg/kg et inférieure à 256 mg/kg chez la souris.

souris [4] = test: CNS action of CRL 40727: sedative-type effects in the mouse; assay type: in vivo
chiens [5] = test: Cardiovascular action, intravenous perfusion in dogs; assay type: in vivo, chien; settings: for minimal effective dose: Canis lupus familiaris, iv
Experimental: Deux chiens reçoivent le CRL 40727 par voie intraveineuse, en perfusion de 6 min, aux doses successives de 0,1 mg/kg, 1 mg/kg, 2,5 mg/kg, 5 mg/kg, 10 mg/kg et 20 mg/kg. On messure leur pression artérielle, leur fréquence cardiaque, leur débit fémoral, leur température rectale.

chiens [6] = test: Cardiovascular action, intraduodenal route in dogs; assay type: in vivo, chien
Experimental: Trois chiens reçoivent le CRL 40727 par voie intraduodénale aux doses successives de 1 mg/kg, 2,5 mg/kg, 5 mg/kg et 10 mg/kg. On mesure les mêmes paramètres que ci-dessus. On observe ce qui suit.

souris [7] = test: Interaction with oxotremorine; assay type: in vivo; settings: mouse
Experimental: Le CRL 40827 est administré à des lots de 6 souris 30 min avant l'injection intrapéritonéale de 0,5 mg/kg d'oxotrémo- rine. On observe que, dès la dose de 0,5 mg/kg, le CRL 40827 antagonise l'action hypothermisante de l'oxotrémorine; cet effet est très net à 32 mg/kg.
as §2

souris [8] = test: Four-plate test, traction and electroshock; assay type: in vivo; settings: mouse, 30 min after dosing
Experimental: Le test est pratiqué sur des lots de 10 souris, 30 min après l'administration de CRL 40827.
as §2

rats = test: Interaction with amphetamine (stereotypies); assay type: in vivo, rat; settings: 8 and 32 mg/kg
Experimental: L'amphétamine (2 mg/kg) est injectée par voie intrapéritonéale à des lots de 6 rats, 30 min après l'administration de CRL 40827. […] Interaction avec la réserpine
as §2

souris [9] = test: Asphyxic anoxia (gallamine triethiodide); assay type: in vivo; settings: mouse
Experimental: Des lots de 10 souris reçoivent le CRL 40827 30 min avant l'administration intrapéritonéale d: 34 mg/kg de triiodoéthy- late de gallamine. A la plus forte dose (34 mg/kg),le CRL 40827 empêche l'apparition des convulsions et de la mort chez 40% des animaux.
as §2

souris [10] = test: Motility reduced by hypoxic aggression (acute hypobaric anoxia); assay type: in vivo; settings: mouse
Experimental: Une demi-heure après avoir reçu le CRL 40827, les souris (10 par dose, 20 témoins) sont soumises à une anoxie hypobare aiguë (dépression de 8 x 10^4 Pa en 90 s, détente de 45 s), puis elles sont placées en actimètre où leur motilité est enregistrée pendant 10 min.
as §2

souris [11] = test: Interaction with reserpine (hypothermia, ptosis); assay type: in vivo; settings: mouse
Experimental: Quatre heures après l'injection intrapéritonéale de 2,5 mg/kg de réserpine, des lots de 6 souris reçoivent le CRL 40827.
as §2

souris [12] = test: Motility reduced by habituation to the enclosure; assay type: in vivo; settings: mouse
Experimental: Après 18 h de séjour dans les actimètres, les souris (6 par dose, 12 témoins) reçoivent le CRL 40827. Elles sont aussitôt replacées dans leurs enceintes respectives et, 30 min plus tard, on enregistre leur motilité pendant 30 min.
as §2

souris mâles = test: Intergroup aggressiveness test (number of fights after removal of the partition); assay type: in vivo; settings: mouse; dose not given
Text: Des essais comparatifs ont été entrepris pour mettre en évidence quels sont les effets chez l'animal qui permettent de distinguer les produits selon l'invention de leurs homologues fluorés connus. Parmi ces essais, on a résumé ceux concernant les propriétés antiagressives. Plus précisément, on a évalué la diminution de l'agressivité intergroupes selon la technique suivante : a.près avoir séjourné pendant 3 semaines de part et d'autre d'une cloison opaque séparant leur cage par le milieu, des groupes de trois souris mâles de 20 g chacune environ reçoivent, par voie intrapéritonéale, les produits à tester en solution dans de l'eau distillée, les animaux témoins ne recevant que de l'eau distillée par voie intrapéritonéale. Une demi-heure plus tard, les deux groupes d'une même cage sont réunis par retrait de la cloison opaque et on note le nombre de combats qui surviennent en 10 min. On a utilisé trois cages pour chaque produit à tester et six cages pour le lot témoin ne recevant pas les produits à tester.
Les résultats du tableau I ci-après donnent la diminution de l'agressivité intergroupes par rapport au lot témoin, tous les produits à tester étant administrés à la dose de 8 mg/kg par voie intrapéritonéale. […]

rat = test: Interaction with apomorphine, rat; assay type: in vivo; settings: i.p. 30 min before apomorphine 0,5 mg/kg s.c.
Experimental: as §1
Le CRL 40 827 est administré à des lots de 6 rats 30 min avant l'injection sous-cutanée de 0,5 mg/kg d'apomorphine.
as §2

souris [13] = test: Spontaneous motility (actimeter); assay type: in vivo; settings: mouse; high dose 64 mg/kg
Experimental: Une demi-heure après avoir reçu le CRL 40827, les souris (6 par dose, 12 témoins) sont placées en actimètre où leur motilité est enregistrée pendant 30 min.
as §2

CC(C)(C)NCC(O)c1ccccc1F (stereo not shown) [CRL 40827A, fumaratede 1-(2-fluorophényl)-2-tertiobutylamino-1-éthanol]
résultats en tant qu'agents antidépresseurs chez l'homme (homme): excellents résultats

CC(C)NCC(=O)c1ccc(F)cc1 [CRL 40727, chlorhydratede N-(4-fluorophénacyl)-isopropylamine]
effets de type sédatif: température, effets hypothermisants de l'apomorphine, l'oxotrémorine et la réserpine [1]: hypothermie et potentialisation des effets hypothermisants de l'apomorphine, l'oxotrémorine et la réserpine
stéréotypies amphétaminiques [1]: antagonisme modéré
comportement de verticalisation et stéréotypies (apomorphine) (souris [2]): ne modifie pas
action hypothermisante de la forte dose d'apomorphine (souris [2]; 0,5, 2 and above all 8 and 32 mg/kg i.p., 30 min before apomorphine 16 mg/kg s.c.): s'oppose nettement
résultats cliniques dans le domaine psychotrope en tant qu'agents sédatifs et antidépresseurs (homme; clinic): bons résultats
résultats en tant qu'agents antidépresseurs chez l'homme (homme): excellents résultats
dose maximale non mortelle, DL-0 (souris [3]): > 128 mg/kg and < 256 mg/kg
effets de type sédatif: motilité et agressivité (souris [4]): hypomotilité et diminution de l'agressivité
effets de type sédatif: sédation, réactivité (souris [4]): sédation et hyporéactivité
minimal effective dose (chiens [5]; dog, i.v., successive doses 0,1 to 20 mg/kg, read-out: dose from which the débit fémoral increases): 1 mg/kg
minimal effective dose (chiens [5]; dog, i.v., read-out: dose from which the pression artérielle diastolique decreases): 10 mg/kg
minimal effective dose (chiens [5]; dog, i.v., read-out: dose from which the pression artérielle différentielle increases): 5 mg/kg
minimal effective dose (chiens [5]; dog, i.v., read-out: dose from which the pression artérielle moyenne decreases): 20 mg/kg
fréquence cardiaque (chiens [5]; dog, i.v.): n'est pas nettement modifiée
hypotension à l'isoprénaline (chiens [5]; dog, i.v.): n'est pas modifiée
fréquence cardiaque (tachycardie à l'isoprénaline) (chiens [5]; dog, mean, after 10 mg/kg i.v., control 215): 182 battements/min
pression artérielle (chiens [5]; one dog, supplementary dose of 40 mg/kg I.V.): hypotension plus importante qu'à la dose précédente
minimal effective dose (chiens [6]; Canis lupus familiaris, dog, intraduodenal, read-out: dose from which une action hypotensive appears): 10 mg/kg
action hypotensive et vasodilatatrice (chiens [6]; another dog, 5 mg/kg I.V. at the end of the intraduodenal test): Le même résultat
hypotension à l'isoprénaline (chiens [6]; dog, intraduodenal): n'est pas modifiée
fréquence cardiaque (tachycardie à l'isoprénaline) (chiens [6]; dog, mean, after 10 mg/kg intraduodenal, control 220): 165 battements/min
action hypotensive et vasodilatatrice (chiens [6]; one dog, supplementary dose of 20 mg/kg I.D.): action hypotensive plus importante, sans effet vasodilatateur supplémentaire

CC(C)(C)NCC(O)c1ccc(F)cc1 (stereo not shown) [CRL 40854, chlorhydratede 1-(4-fluorophényl)-2-tertiobutylamino-1-éthanol]
comportement de verticalisation et stéréotypies (apomorphine) (souris [2]): sans modifier
action hypothermisante de l'apomorphine (souris [2]; 16 and 64 mg/kg i.p.): s'oppose modérément
signes de stimulation cholinergique périphérique (oxotrémorine) (souris [7]): ne modifie pas
tremblements provoqués par l'oxotrémorine (souris [7]): ne modifie pas
effet hypothermisant de l'oxotrémorine (souris [7]; doses printed 'le et 64 mg/kg'): aggrave
effets convulsivants de l'électrochoc (souris [8]): ne modifie pas les effets convulsivants
incapacité motrice (traction) (souris [8]): ne provoque pas de déficit moteur majeur
nombre de passages punis (test des quatre plaques) (souris [8]): n'entraîne pas d'augmen- tion
durée des stéréotypies amphétaminiques (rats): potentialise
dose maximale non mortelle, DL-0 (souris [3]): > 128 mg/kg and < 256 mg/kg
apparition des convulsions et mort (anoxie par curarisation) (souris [9]): ne modifie pas
récupération motrice après anoxie hypobare (souris [10]): n'entraîne pas d'amélioration
ptôsis réserpinique (souris [11]): gans modifier
hypothermie réserpinique (souris [11]; 4, 16 and 64 mg/kg): antagonise modérément
activité motrice (souris habituée à son enceinte) (souris [12]): ne provoque pas de reprise nette
agressivité intergroupes / effet antiagressif (souris mâles): diminue l'agressivité intergroupes
stéréotypies induites par l'apomorphine (rat): ne modifie pas
motilité spontanée (souris [13]): diminue modérément

COc1cc(OC)c(C(=O)CCCN2CCCC2)c(OC)c1 [LL 1656, chlorhydratede (2,4,6-triméthoxyphényl)-(3-pyrrolidino-propyl)-cétone, reference compound]
débit fémoral (chiens [5]; one dog, 6 mg/kg I.V. after the CRL 40727 doses): n'augmente pas plus qu'avec la dose de 10 mg/kg de CRL 40727
vasodilatation (chiens [6]; 6 mg/kg i.v., injected after CRL 40727): n'entraîne pas de vasodilatation supplémentaire
